# Values joined by “and” are separate entries in the source; they are usually repeats but may differ in a detail not shown here. Equal entries are not always repeated.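 Step 1: Grow cells in 96-well plates. Step 2: Expose to compound for 48 hours at 5 concentrations. Step 3: Interpolate endpoints linearly; if unreached, use highest concentration. Here, GI50 denotes the concentration required for 50% inhibition of growth. TGI denotes the concentration required for complete inhibition of growth.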
# Tested on: NCI-H23 lung
# Assay: NCI-60 cell line screen, 48 h
Compound,GI50 [µM],TGI [µM]
CN1CCN(C2CCN(C(=O)Nc3cc(Oc4ccc(NC(=O)C5(C(=O)Nc6ccc(F)cc6)CC5)c(F)c4)ccn3)CC2)CC1,1.23,> 3.42

# Tested on: OVCAR-3 ovarian
# Assay: NCI-60 cell line screen, 48 h
Compound,GI50,TGI [µM]
CC1(C)N=C(N)N=C(N)N1c1ccc(CCCCc2ccc(Cl)cc2S(=O)(=O)F)c(Cl)c1,0.762 µM,12.2
O=C(Nc1ccc(Nc2ccncc2)cc1)c1ccc([N+](=O)[O-])cc1,1.93 µM,3.76
COc1ccccc1/C=N\N/C(N)=N\N=C\c1ccccc1OC,0.157 µM,0.393
CC[As](CC)SC[C@H](C)C(=O)N1CCC[C@H]1C(=O)O,0.0135 µM,0.0347
Oc1ccc(Nc2ncnc3c2sc2ncccc23)cc1,0.397 µM,> 100
COc1cccc(CC(C)=C(c2ccc(OCCN(C)C)cc2)c2ccc(OCCN(C)C)cc2)c1,1.18 µM,3.42
C=C1C(=O)OC2CC(C)C(C(CC(C)=O)OC(C)=O)=CCC12 (stereo not drawn),–,20.3
S=C(Nc1ccc(Cl)cc1)Nc1ccc(-c2nc3ccccc3s2)cc1,9.93 µM,34.1
O=c1/c(=C/c2ccccc2[N+](=O)[O-])sc2nnc(-c3ccco3)n12,–,32.4
COC(=O)C[C@](O)(CCCC(C)(C)O)C(=O)O[C@@H]1C(OC)=C[C@]23CCCN2CCc2cc4c(cc2[C@H]13)OCO4,0.251 µM and 0.0286 µM,–
CC(=O)Nc1ccc(S(=O)(=O)N2C(=O)CCC2C(=O)Nc2ccc(Br)cc2)cc1 (stereo not drawn),2.03 µM,7.47
CC(=O)CCn1ncc(Cl)c(Cl)c1=O,–,27.5
C[N+](C)(C)CC1CCCc2ccccc2C1=O (stereo not drawn),–,17.7
COc1cc(C(=O)N2CCN(C=O)C2=S)cc(OC)c1OC,16.9 µM,33.6
Cn1c(I)c(C#CCO[Si](C)(C)C(C)(C)C)c(=O)[nH]c1=O,6.49 µM,16.2
CCCCC#CC1=C(Br)C(=O)OC1,0.453 µM,2.27
Cc1cn2c(=O)c3ncn(C4OC(CO)C(O)C4O)c3n(C)c2n1 (stereo not drawn),–,> 100
O=C(Nc1ccc(Br)cc1F)c1cc(F)ccc1O,0.411 µM,6.64
c1ccc(-c2nnc(-c3ccccn3)s2)nc1,> 100 µM,> 100
CN1CCN(C2CCN(C(=O)Nc3cc(Oc4ccc(NC(=O)C5(C(=O)Nc6ccc(F)cc6)CC5)c(F)c4)ccn3)CC2)CC1,–,> 3.02

# Tested on: OVCAR-5 ovarian
# Assay: NCI-60 cell line screen, 48 h
Compound,GI50 [µM],TGI
CC1(C)N=C(N)N=C(N)N1c1ccc(CCCCc2ccc(Cl)cc2S(=O)(=O)F)c(Cl)c1,0.666,22.8 µM
O=C(Nc1ccc(Nc2ccncc2)cc1)c1ccc([N+](=O)[O-])cc1,9.82,> 44.7 µM
COc1ccccc1/C=N\N/C(N)=N\N=C\c1ccccc1OC,3.36,> 100 µM
CC[As](CC)SC[C@H](C)C(=O)N1CCC[C@H]1C(=O)O,0.245,0.735 µM
Oc1ccc(Nc2ncnc3c2sc2ncccc23)cc1,0.0831,> 100 µM
COc1cccc(CC(C)=C(c2ccc(OCCN(C)C)cc2)c2ccc(OCCN(C)C)cc2)c1,3.24,7.35 µM
C=C1C(=O)OC2CC(C)C(C(CC(C)=O)OC(C)=O)=CCC12 (stereo not drawn),–,31.6 µM
S=C(Nc1ccc(Cl)cc1)Nc1ccc(-c2nc3ccccc3s2)cc1,20.8,44 µM
O=c1/c(=C/c2ccccc2[N+](=O)[O-])sc2nnc(-c3ccco3)n12,–,> 100 µM
COC(=O)C[C@](O)(CCCC(C)(C)O)C(=O)O[C@@H]1C(OC)=C[C@]23CCCN2CCc2cc4c(cc2[C@H]13)OCO4,0.0489,2.93 µM and 0.556 µM
CC(=O)Nc1ccc(S(=O)(=O)N2C(=O)CCC2C(=O)Nc2ccc(Br)cc2)cc1 (stereo not drawn),4.86,21.7 µM
CC(=O)CCn1ncc(Cl)c(Cl)c1=O,–,33.2 µM
C[N+](C)(C)CC1CCCc2ccccc2C1=O (stereo not drawn),–,28.8 µM
COc1cc(C(=O)N2CCN(C=O)C2=S)cc(OC)c1OC,48.5,> 100 µM
Cn1c(I)c(C#CCO[Si](C)(C)C(C)(C)C)c(=O)[nH]c1=O,18,33 µM
CCCCC#CC1=C(Br)C(=O)OC1,2.73,7.38 µM
Cc1cn2c(=O)c3ncn(C4OC(CO)C(O)C4O)c3n(C)c2n1 (stereo not drawn),–,> 100 µM
O=C(Nc1ccc(Br)cc1F)c1cc(F)ccc1O,3.85,> 100 µM
c1ccc(-c2nnc(-c3ccccn3)s2)nc1,> 100,> 100 µM
CN1CCN(C2CCN(C(=O)Nc3cc(Oc4ccc(NC(=O)C5(C(=O)Nc6ccc(F)cc6)CC5)c(F)c4)ccn3)CC2)CC1,1.58,> 10 µM

# Tested on: SF-295 CNS
# Assay: NCI-60 cell line screen, 48 h
Compound,GI50 [µM],TGI [µM]
CC1(C)N=C(N)N=C(N)N1c1ccc(CCCCc2ccc(Cl)cc2S(=O)(=O)F)c(Cl)c1,0.409,12.8
O=C(Nc1ccc(Nc2ccncc2)cc1)c1ccc([N+](=O)[O-])cc1,3.79,10.3
COc1ccccc1/C=N\N/C(N)=N\N=C\c1ccccc1OC,< 0.0478,0.163
CC[As](CC)SC[C@H](C)C(=O)N1CCC[C@H]1C(=O)O,0.743,2
Oc1ccc(Nc2ncnc3c2sc2ncccc23)cc1,0.0389,> 100
COc1cccc(CC(C)=C(c2ccc(OCCN(C)C)cc2)c2ccc(OCCN(C)C)cc2)c1,4.07,8.62
C=C1C(=O)OC2CC(C)C(C(CC(C)=O)OC(C)=O)=CCC12 (stereo not drawn),–,62
S=C(Nc1ccc(Cl)cc1)Nc1ccc(-c2nc3ccccc3s2)cc1,16.1,40.6
O=c1/c(=C/c2ccccc2[N+](=O)[O-])sc2nnc(-c3ccco3)n12,–,55.5
COC(=O)C[C@](O)(CCCC(C)(C)O)C(=O)O[C@@H]1C(OC)=C[C@]23CCCN2CCc2cc4c(cc2[C@H]13)OCO4,0.0237,–
CC(=O)Nc1ccc(S(=O)(=O)N2C(=O)CCC2C(=O)Nc2ccc(Br)cc2)cc1 (stereo not drawn),2.11,12.1
CC(=O)CCn1ncc(Cl)c(Cl)c1=O,–,33.6
C[N+](C)(C)CC1CCCc2ccccc2C1=O (stereo not drawn),–,> 55
COc1cc(C(=O)N2CCN(C=O)C2=S)cc(OC)c1OC,29.3,> 100
Cn1c(I)c(C#CCO[Si](C)(C)C(C)(C)C)c(=O)[nH]c1=O,> 100,> 100
CCCCC#CC1=C(Br)C(=O)OC1,6.2,28.2
Cc1cn2c(=O)c3ncn(C4OC(CO)C(O)C4O)c3n(C)c2n1 (stereo not drawn),–,> 100
O=C(Nc1ccc(Br)cc1F)c1cc(F)ccc1O,1.76,3.42
c1ccc(-c2nnc(-c3ccccn3)s2)nc1,> 100,> 100
CN1CCN(C2CCN(C(=O)Nc3cc(Oc4ccc(NC(=O)C5(C(=O)Nc6ccc(F)cc6)CC5)c(F)c4)ccn3)CC2)CC1,0.47,> 3.67

# Tested on: UACC-257 melanoma
# Assay: NCI-60 cell line screen, 48 h
Compound,GI50,TGI
CC1(C)N=C(N)N=C(N)N1c1ccc(CCCCc2ccc(Cl)cc2S(=O)(=O)F)c(Cl)c1,0.808 µM,17 µM
O=C(Nc1ccc(Nc2ccncc2)cc1)c1ccc([N+](=O)[O-])cc1,10.5 µM,26.2 µM
COc1ccccc1/C=N\N/C(N)=N\N=C\c1ccccc1OC,4.29 µM,> 23.6 µM
CC[As](CC)SC[C@H](C)C(=O)N1CCC[C@H]1C(=O)O,0.282 µM,1.48 µM
Oc1ccc(Nc2ncnc3c2sc2ncccc23)cc1,0.0726 µM,> 100 µM
COc1cccc(CC(C)=C(c2ccc(OCCN(C)C)cc2)c2ccc(OCCN(C)C)cc2)c1,4.06 µM,8.8 µM
C=C1C(=O)OC2CC(C)C(C(CC(C)=O)OC(C)=O)=CCC12 (stereo not drawn),–,37.4 µM
S=C(Nc1ccc(Cl)cc1)Nc1ccc(-c2nc3ccccc3s2)cc1,20.3 µM,44.9 µM
O=c1/c(=C/c2ccccc2[N+](=O)[O-])sc2nnc(-c3ccco3)n12,–,> 100 µM
COC(=O)C[C@](O)(CCCC(C)(C)O)C(=O)O[C@@H]1C(OC)=C[C@]23CCCN2CCc2cc4c(cc2[C@H]13)OCO4,0.205 µM and 0.0232 µM,0.839 µM and 0.0881 µM
CC(=O)Nc1ccc(S(=O)(=O)N2C(=O)CCC2C(=O)Nc2ccc(Br)cc2)cc1 (stereo not drawn),2.1 µM,9.5 µM
CC(=O)CCn1ncc(Cl)c(Cl)c1=O,–,31.5 µM
C[N+](C)(C)CC1CCCc2ccccc2C1=O (stereo not drawn),–,32.4 µM
COc1cc(C(=O)N2CCN(C=O)C2=S)cc(OC)c1OC,19.9 µM,45.4 µM
Cn1c(I)c(C#CCO[Si](C)(C)C(C)(C)C)c(=O)[nH]c1=O,12.9 µM,27.3 µM
CCCCC#CC1=C(Br)C(=O)OC1,2.2 µM,5.67 µM
Cc1cn2c(=O)c3ncn(C4OC(CO)C(O)C4O)c3n(C)c2n1 (stereo not drawn),–,> 100 µM
O=C(Nc1ccc(Br)cc1F)c1cc(F)ccc1O,0.466 µM,4 µM
c1ccc(-c2nnc(-c3ccccn3)s2)nc1,> 100 µM,> 100 µM
CN1CCN(C2CCN(C(=O)Nc3cc(Oc4ccc(NC(=O)C5(C(=O)Nc6ccc(F)cc6)CC5)c(F)c4)ccn3)CC2)CC1,0.73 µM,2.27 µM

# Tested on: UO-31 renal
# Assay: NCI-60 cell line screen, 48 h
Compound,GI50 [µM],TGI
CC1(C)N=C(N)N=C(N)N1c1ccc(CCCCc2ccc(Cl)cc2S(=O)(=O)F)c(Cl)c1,6.22,23.6 µM
O=C(Nc1ccc(Nc2ccncc2)cc1)c1ccc([N+](=O)[O-])cc1,3.46,10.4 µM
COc1ccccc1/C=N\N/C(N)=N\N=C\c1ccccc1OC,2.31,> 23.1 µM
CC[As](CC)SC[C@H](C)C(=O)N1CCC[C@H]1C(=O)O,0.024,0.0933 µM
Oc1ccc(Nc2ncnc3c2sc2ncccc23)cc1,0.0241,5.02 µM
COc1cccc(CC(C)=C(c2ccc(OCCN(C)C)cc2)c2ccc(OCCN(C)C)cc2)c1,3.55,7.57 µM
C=C1C(=O)OC2CC(C)C(C(CC(C)=O)OC(C)=O)=CCC12 (stereo not drawn),–,29.7 µM
S=C(Nc1ccc(Cl)cc1)Nc1ccc(-c2nc3ccccc3s2)cc1,11.8,25.2 µM
O=c1/c(=C/c2ccccc2[N+](=O)[O-])sc2nnc(-c3ccco3)n12,–,96.8 µM
COC(=O)C[C@](O)(CCCC(C)(C)O)C(=O)O[C@@H]1C(OC)=C[C@]23CCCN2CCc2cc4c(cc2[C@H]13)OCO4,0.181,2.01 µM and 3.13 µM
CC(=O)Nc1ccc(S(=O)(=O)N2C(=O)CCC2C(=O)Nc2ccc(Br)cc2)cc1 (stereo not drawn),1.38,8.21 µM
CC(=O)CCn1ncc(Cl)c(Cl)c1=O,–,34.6 µM
C[N+](C)(C)CC1CCCc2ccccc2C1=O (stereo not drawn),–,30.7 µM
COc1cc(C(=O)N2CCN(C=O)C2=S)cc(OC)c1OC,–,3.36 µM
Cn1c(I)c(C#CCO[Si](C)(C)C(C)(C)C)c(=O)[nH]c1=O,14.6,28.6 µM
CCCCC#CC1=C(Br)C(=O)OC1,1.37,3.1 µM
Cc1cn2c(=O)c3ncn(C4OC(CO)C(O)C4O)c3n(C)c2n1 (stereo not drawn),–,> 100 µM
O=C(Nc1ccc(Br)cc1F)c1cc(F)ccc1O,0.21,1.27 µM
c1ccc(-c2nnc(-c3ccccn3)s2)nc1,22.3,> 100 µM
CN1CCN(C2CCN(C(=O)Nc3cc(Oc4ccc(NC(=O)C5(C(=O)Nc6ccc(F)cc6)CC5)c(F)c4)ccn3)CC2)CC1,1.46,> 10 µM

# — PubChem BioAssay (NCI)
